In ChEMBL document CHEMBL4219156, “Synthesis, evaluation and CoMFA/CoMSIA study of nitrofuranyl methyl N-heterocycles as novel antitubercular agents” (2018):
≈ marks a conversion by molar mass, not a printed value.

Tested on: Mycobacterium tuberculosis
Test: Antitubercular activity against Mycobacterium tuberculosis H37Rv ATCC 27294 after 7 days by MABA
Type: functional
Design: -logMIC: unit not given here
Settings: for MIC: Mycobacterium tuberculosis, H37Rv ATCC 27294, 168 h

In the case of CC(C)(C)c1ccc(N2CCN(Cc3ccc([N+](=O)[O-])o3)CC2)cc1, the “-logMIC” value is reported as 4.796 and the MIC is reported as 0.016 µg/mL (≈ 0.0466 µM).

With CCC(C)C(=O)N1CCN(Cc2ccc([N+](=O)[O-])o2)CC1 (stereo not drawn) the “-logMIC” value was 3.303 and the MIC was 3.09 µg/mL (≈ 10.5 µM).

CC(C)(C)C(=O)N1CCN(Cc2ccc([N+](=O)[O-])o2)CC1 was tested, and the “-logMIC” value was 3.023 and the MIC was 0.948 µg/mL (≈ 3.21 µM).

O=C(CN1CCN(Cc2ccc([N+](=O)[O-])o2)CC1)Nc1ccccc1 was tested, and the “-logMIC” value was 1.99 and the MIC was 10.2 µg/mL (≈ 29.7 µM).

With O=C(C1CCCCC1)N1CCC2(CCN(Cc3ccc([N+](=O)[O-])o3)CC2)CC1 the MIC was 3.87 µg/mL (≈ 9.93 µM).

For COc1ccc2c(c1)CN(Cc1ccc([N+](=O)[O-])o1)CC2, the “-logMIC” value was 3.918 and the MIC was 0.121 µg/mL (≈ 0.42 µM).

COc1ccc(S(=O)(=O)N2CC3CN(Cc4ccc([N+](=O)[O-])o4)CC3C2)cc1 (stereo not drawn) was tested, and the MIC was 0.405 µg/mL (≈ 0.994 µM).

For O=[N+]([O-])c1ccc(CN2Cc3ccc(F)cc3C2)o1, the “-logMIC” value was 3.31 and the MIC was 0.49 µg/mL (≈ 1.87 µM).

With CC(=O)N1CCN(Cc2ccc([N+](=O)[O-])o2)CC1 the “-logMIC” value was 1.922 and the MIC was 12 µg/mL (≈ 47.3 µM).

In the case of O=C(C1CCCCC1)N1CCN(Cc2ccc([N+](=O)[O-])o2)CC1, the “-logMIC” value is reported as 3.621 and the MIC is reported as 0.239 µg/mL (≈ 0.744 µM).

O=[N+]([O-])c1ccc(S(=O)(=O)N2CC3CN(Cc4ccc([N+](=O)[O-])o4)CC3C2)cc1 (stereo not drawn) was tested, and the MIC was 0.235 µg/mL (≈ 0.556 µM).

Compound CC(C)CC(=O)N1CCC2(CCN(Cc3ccc([N+](=O)[O-])o3)CC2)CC1 has an MIC of 2.41 µg/mL (≈ 6.63 µM).

N#Cc1ccc2c(c1)CN(Cc1ccc([N+](=O)[O-])o1)CC2 was tested, and the “-logMIC” value was 3.988 and the MIC was 0.103 µg/mL (≈ 0.364 µM).

For CC(C)(C)OC(=O)CN1CCN(Cc2ccc([N+](=O)[O-])o2)CC1, the “-logMIC” value was 2.514 and the MIC was 3.06 µg/mL (≈ 9.4 µM).

CC(C)(C)c1cccc(N2CCC3(CCN(Cc4ccc([N+](=O)[O-])o4)CC3)CC2)c1 was tested, and the “-logMIC” value was greater than 4.796 and the MIC was less than 0.016 µg/mL.

In the case of O=C(c1ccccc1)N1CCN(Cc2ccc([N+](=O)[O-])o2)CC1, the “-logMIC” value is reported as 2.733 and the MIC is reported as 1.85 µg/mL (≈ 5.86 µM).

In the case of COc1ccc(CON=C2CCN(Cc3ccc([N+](=O)[O-])o3)CC2)cc1, the “-logMIC” value is reported as 4.293 and the MIC is reported as 0.051 µg/mL (≈ 0.142 µM).

In the case of CN(C)C(=O)CN1CCN(Cc2ccc([N+](=O)[O-])o2)CC1, the “-logMIC” value is reported as 1.516 and the MIC is reported as 30.5 µg/mL (≈ 103 µM).

CC(=O)N1CCC2(CCN(Cc3ccc([N+](=O)[O-])o3)CC2)CC1 gave an MIC of 32 µg/mL (≈ 99.6 µM).

For O=[N+]([O-])c1ccc(CN2CCc3ccc(Cl)cc3C2)o1, the “-logMIC” value was 3.962 and the MIC was 0.109 µg/mL (≈ 0.372 µM).

With O=C(c1ccc(F)cc1)N1CCN(Cc2ccc([N+](=O)[O-])o2)CC1 the “-logMIC” value was 2.779 and the MIC was 1.66 µg/mL (≈ 4.99 µM).

In the case of O=[N+]([O-])c1ccc(CN2CC3CN(S(=O)(=O)c4ccc(C(F)(F)F)cc4)CC3C2)o1 (stereo not drawn), the MIC is reported as 0.123 µg/mL (≈ 0.276 µM).

For CNc1ccc(C(=O)N2CCN(Cc3ccc([N+](=O)[O-])o3)CC2)cc1, the “-logMIC” value was 3.315 and the MIC was 0.484 µg/mL (≈ 1.41 µM).

For CCON=C1CCN(Cc2ccc([N+](=O)[O-])o2)CC1, the “-logMIC” value was 3.029 and the MIC was 0.935 µg/mL (≈ 3.5 µM).

In the case of COc1ccc(C(=O)N2CCN(Cc3ccc([N+](=O)[O-])o3)CC2)cc1, the “-logMIC” value is reported as 3.408 and the MIC is reported as 0.391 µg/mL (≈ 1.13 µM).

CC(C)CC(=O)N1CCN(Cc2ccc([N+](=O)[O-])o2)CC1 was tested, and the “-logMIC” value was 2.51 and the MIC was 0.498 µg/mL (≈ 1.69 µM).

CC(=O)CCN1CC2CN(Cc3ccc([N+](=O)[O-])o3)CC2C1 (stereo not drawn) was tested, and the MIC was 32 µg/mL (≈ 104 µM).

Work on CC(C)(C)C(=O)N1CC2CN(Cc3ccc([N+](=O)[O-])o3)CC2C1 (stereo not drawn) yielded an MIC of 1.55 µg/mL (≈ 4.81 µM).

O=[N+]([O-])c1ccc(CN2CCC(c3ccc(C(F)(F)F)cc3)CC2)o1 was tested, and the “-logMIC” value was 2.609 and the MIC was 2.46 µg/mL (≈ 6.94 µM).

O=[N+]([O-])c1ccc(CN2Cc3ccccc3C2)o1 was tested, and the “-logMIC” value was 2.749 and the MIC was 1.78 µg/mL (≈ 7.3 µM).

With O=C(CN1CCN(Cc2ccc([N+](=O)[O-])o2)CC1)Oc1ccccc1 the “-logMIC” value was 3.325 and the MIC was 0.473 µg/mL (≈ 1.37 µM).

With O=[N+]([O-])c1ccc(CN2CCc3ccc(Br)cc3C2)o1 the “-logMIC” value was 4.206 and the MIC was 0.062 µg/mL (≈ 0.184 µM).

O=C(C1CCCCC1)N1CC2CN(Cc3ccc([N+](=O)[O-])o3)CC2C1 (stereo not drawn) was tested, and the MIC was 7.68 µg/mL (≈ 22.1 µM).

Compound CC(C)(C)c1ccc(S(=O)(=O)N2CC3CN(Cc4ccc([N+](=O)[O-])o4)CC3C2)cc1 (stereo not drawn) has an MIC of 0.126 µg/mL (≈ 0.291 µM).

With O=[N+]([O-])c1ccc(CN2CCC3(CC2)CCN(S(=O)(=O)c2ccc(Cl)cc2)CC3)o1 the “-logMIC” value was 4.51 and the MIC was 0.031 µg/mL (≈ 0.0683 µM).

With O=[N+]([O-])c1ccc(CN2CCC(c3ccc(Br)cc3)CC2)o1 the “-logMIC” value was 3.31 and the MIC was 0.49 µg/mL (≈ 1.34 µM).

O=[N+]([O-])c1ccc(CN2CCC(c3ccc(F)cc3)CC2)o1 was tested, and the “-logMIC” value was 3.337 and the MIC was 0.46 µg/mL (≈ 1.51 µM).

In the case of CC(=O)CN1CCN(Cc2ccc([N+](=O)[O-])o2)CC1, the “-logMIC” value is reported as 2.117 and the MIC is reported as 7.63 µg/mL (≈ 28.6 µM).

For O=[N+]([O-])c1ccc(CN2CCC(=NOCc3ccc(C(F)(F)F)cc3)CC2)o1, the “-logMIC” value was 3.673 and the MIC was 0.212 µg/mL (≈ 0.534 µM).

With CCOC(=O)CN1CCN(Cc2ccc([N+](=O)[O-])o2)CC1 the “-logMIC” value was 2.414 and the MIC was 3.85 µg/mL (≈ 13 µM).

In the case of O=[N+]([O-])c1ccc(CN2CCC(=NOCc3ccccc3)CC2)o1, the “-logMIC” value is reported as 3.608 and the MIC is reported as 0.247 µg/mL (≈ 0.75 µM).

COc1ccc(C2CCN(Cc3ccc([N+](=O)[O-])o3)CC2)cc1 was tested, and the “-logMIC” value was 3.4 and the MIC was 0.398 µg/mL (≈ 1.26 µM).

For CON=C1CCN(Cc2ccc([N+](=O)[O-])o2)CC1, the “-logMIC” value was 2.701 and the MIC was 1.99 µg/mL (≈ 7.85 µM).

With O=[N+]([O-])c1ccc(CN2CCNCC2)o1 the “-logMIC” value was 3.616 and the MIC was 0.242 µg/mL (≈ 1.15 µM).

CC(C)(C)c1ccc(N2CCC3(CCN(Cc4ccc([N+](=O)[O-])o4)CC3)CC2)cc1 was tested, and the “-logMIC” value was greater than 4.796 and the MIC was less than 0.016 µg/mL.

In the case of O=[N+]([O-])c1ccc(CN2CCC(c3ccc(OC(F)(F)F)cc3)CC2)o1, the “-logMIC” value is reported as 3.303 and the MIC is reported as 0.497 µg/mL (≈ 1.34 µM).

For O=[N+]([O-])c1ccc(CON=C2CCN(Cc3ccc([N+](=O)[O-])o3)CC2)cc1, the “-logMIC” value was 3.742 and the MIC was 0.181 µg/mL (≈ 0.484 µM).

With N#Cc1ccc2c(c1)CN(Cc1ccc([N+](=O)[O-])o1)C2 the “-logMIC” value was 3.766 and the MIC was 0.171 µg/mL (≈ 0.635 µM).

Compound NNC(=O)c1ccncc1 [ISONIAZID] has an MIC of 0.038 µg/mL (≈ 0.277 µM).

For CO[C@H]1/C=C/O[C@@]2(C)Oc3c(C)c(O)c4c(O)c(c(/C=N/N5CCN(C)CC5)c(O)c4c3C2=O)NC(=O)/C(C)=C\C=C\[C@H](C)[C@H](O)[C@@H](C)[C@@H](O)[C@@H](C)[C@H](OC(C)=O)[C@@H]1C [RIFAMPIN], the MIC was 0.127 µg/mL (≈ 0.154 µM).
